In patent US20260174875A1 (Novo Nordisk A/S, priority 2023, published 2026):
Where two headings read alike, the source gives them in different places.

Legend:
Format in all cases: cell-based
[1] = biological target: T1, human GLP-1 receptor (hGLP-1R) (Homo sapiens, UniProt P43220); assay: GLP-1 receptor assay, method B (CRE-luciferase reporter, BHK cells, 384-well)
T1 construct: expressed in transfected cells

[2] = biological target: T2, human GIP receptor (hGIPR) (Homo sapiens, UniProt P48546); assay: GIP receptor assay, method B (CRE-luciferase reporter, BHK cells, 384-well)
T2 construct: expressed in transfected cells
T2 sequence (P48546 22-466): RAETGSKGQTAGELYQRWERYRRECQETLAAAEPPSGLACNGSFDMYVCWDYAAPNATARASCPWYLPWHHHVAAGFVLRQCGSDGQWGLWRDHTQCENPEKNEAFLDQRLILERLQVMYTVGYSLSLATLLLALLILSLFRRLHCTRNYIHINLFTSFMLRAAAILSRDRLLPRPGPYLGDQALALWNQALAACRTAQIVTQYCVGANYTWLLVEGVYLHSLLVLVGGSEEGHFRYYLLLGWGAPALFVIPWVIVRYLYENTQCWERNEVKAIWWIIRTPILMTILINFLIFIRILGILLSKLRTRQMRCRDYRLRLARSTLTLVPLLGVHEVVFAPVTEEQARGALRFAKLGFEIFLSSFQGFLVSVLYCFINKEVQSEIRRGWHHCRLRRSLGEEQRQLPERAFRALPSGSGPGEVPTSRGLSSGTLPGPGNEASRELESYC
Source text: Activation of the human GIP receptor leads to increased intra-cellular concentrations of cyclic AMP (cAMP) and the consequent transcription activation from promoters containing multiple copies of the cAMP response element (CRE). It is thus possible to measure GIP receptor activity using a CRE-luciferase reporter gene introduced into Baby Hamster Kidney (BHK) cells co-expressing the human GIP receptor.
Cells at about 80-90% confluency were washed once with PBS (Gibco 14190-094) and detached from the cell flasks with Versene (Gibco, 15040-066). After centrifugation, the cells were counted, resuspended and diluted to approximately 1.5-3.0×10^6 (1.5E+6 to 3.0E+6) cells/mL in Recovery Cell Culture Freezing Medium (Gibco, 12648-010) and stored at −180° C. in suitable aliquots until use.
The assay buffer consisted of DMEM without phenol red (Gibco, 11880-028) supplemented with 1× GlutaMAX (Gibco, 35050-038), 10 mM HEPES (Gibco, 15630-056), 1% (w/v) ovalbumin (Sigma, A5503) and 0.1% (v/v) Pluronic F-68 (Gibco, 24040-032) either with HSA or without HSA (Sigma, A9511).
Serial dilutions were transferred to a 384-well assay plate (PerkinElmer/Revvity, 6007688) and mixed with an equal volume (10 μL) of assay buffer without or with 3% HSA (Sigma, A-9511). Frozen stocks of hGIPR BHK Cre-Luc cells were thawed in a 37° C. water bath, washed once in PBS (Gibco 14190-094), diluted to 1.5×10^5 (1.5E+5) cells/mL in assay buffer (without HSA) and added (10 μL) to each well of the 384-well assay plate. After a short centrifugation, the assay plates were incubated for 3 hours at 37° C. in 5% CO2 and let to equilibrated at room temperature for 10 minutes before the addition of 30 μL steadylite Plus™ (PerkinElmer/Revvity, 6066759) per well. Plates were sealed and incubated at room temperature with gentle shaking for 30 minutes while protected from light. Luminescence was detected on a luminescence plate reader e.g. a Synergy 2 (BioTek).

[3] = biological target: T3, human amylin receptor (hAMYR3) (Homo sapiens, UniProt O60896+P30988); assay: Amylin receptor assay, method B (CRE-luciferase reporter, BHK cells)
T3 construct: host or cells: BHK cells (Hollex-1 line expressing hCTR(a) and CRE-Luc), further transfected with human RAMP3
Method: To assess how the activation of the receptors is potentially influenced by the presence of human serum albumin (HSA), the in vitro assays were performed in the absence of HSA and presence of 1% (w/v) HSA.
It is thus possible to measure hAMYR3 activity using a CRE-luciferase reporter gene introduced into Baby Hamster Kidney (BHK) cells co-expressing the hAMYR3.
The cell line was further transfected with human receptor modifying protein 3 (RAMP3) using standard methods.
After centrifugation, the cell pellet was resuspended and diluted to approximately 2.5-4.0×10^6 (2.5E+6 to 4.0E+6) cells/mL in Recovery™ Cell Culture Freezing Medium (Gibco, 12648-010). Cells were aliquoted and stored at −180° C. until use.
The assay buffer consisted of DMEM without phenol red (Gibco, 11880-028) supplemented with 1× GlutaMAX (Gibco, 35050-038), 10 mM HEPES (Gibco, 15630-056) and 1% (w/v) ovalbumin (Sigma, A5503) either with or without 0.1% (v/v) Pluronic F-68 (Gibco, 24040-032) and either with or without HSA (Sigma, A9511).
To perform the assay, hAMYR3 BHK Cre-Luc cells were thawed, washed once in PBS (Gibco 14190-094) and seeded in 40 μL growth medium in a white 384-well culture plate (PerkinElmer/Revvity, 6007688) at a cell density of 4.0×10^3 (4.0E+3) cells/well the day before the experiment. The plate was incubated over night at 37° C. in 5% CO2. […] Serial dilutions were then mixed in a new 96-well plate with equal volume (1:1:1 ratio) of assay buffer and either assay buffer without or with 3% HSA (Sigma, A-9511). Twenty microliters of the solution mix were transferred to the cells which previously were washed once with PBS (Gibco 14190-094). After a short centrifugation, the assay plates were incubated for 3 hours at 37° C. in 5% CO2 and let to equilibrated at room temperature for 10 minutes before the addition of 30 μL steadylite Plus™ PerkinElmer/Revvity, 6066759) per well. Plates were sealed and incubated at room temperature with gentle shaking for 30 minutes while protected from light. Luminescence was detected on a luminescence plate reader e.g., a Synergy 2 (BioTek).

[4] = hGLP-1R Potency, 1% HSA, EC50, methods B, in the presence of 1% HSA
[5] = method B, absence of HSA, read-out: hGLP-1R Potency, no HSA, EC50
[6] = hGIPR Potency, 1% HSA, EC50, methods B, in the presence of 1% HSA
[7] = method B, absence of HSA, read-out: hGIPR Potency, no HSA, EC50
[8] = hAMYR3 Potency, 1% HSA, EC50, methods B, in the presence of 1% HSA
[9] = method B, absence of HSA, read-out: hAMYR3 Potency, no HSA, EC50

T1 sequence (P43220 24-463): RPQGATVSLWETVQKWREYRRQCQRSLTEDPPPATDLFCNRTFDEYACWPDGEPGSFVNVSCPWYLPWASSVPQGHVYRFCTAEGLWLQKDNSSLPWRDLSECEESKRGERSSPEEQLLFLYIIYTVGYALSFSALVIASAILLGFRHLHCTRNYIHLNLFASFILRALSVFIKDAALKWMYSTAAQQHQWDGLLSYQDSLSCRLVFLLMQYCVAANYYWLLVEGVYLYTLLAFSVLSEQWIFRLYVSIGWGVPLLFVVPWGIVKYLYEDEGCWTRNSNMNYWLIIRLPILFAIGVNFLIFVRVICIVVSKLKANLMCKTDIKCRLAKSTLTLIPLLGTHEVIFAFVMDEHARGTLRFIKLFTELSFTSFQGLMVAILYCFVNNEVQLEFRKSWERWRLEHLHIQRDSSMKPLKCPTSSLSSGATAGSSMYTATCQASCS
T3 sequence (P30988 25-474): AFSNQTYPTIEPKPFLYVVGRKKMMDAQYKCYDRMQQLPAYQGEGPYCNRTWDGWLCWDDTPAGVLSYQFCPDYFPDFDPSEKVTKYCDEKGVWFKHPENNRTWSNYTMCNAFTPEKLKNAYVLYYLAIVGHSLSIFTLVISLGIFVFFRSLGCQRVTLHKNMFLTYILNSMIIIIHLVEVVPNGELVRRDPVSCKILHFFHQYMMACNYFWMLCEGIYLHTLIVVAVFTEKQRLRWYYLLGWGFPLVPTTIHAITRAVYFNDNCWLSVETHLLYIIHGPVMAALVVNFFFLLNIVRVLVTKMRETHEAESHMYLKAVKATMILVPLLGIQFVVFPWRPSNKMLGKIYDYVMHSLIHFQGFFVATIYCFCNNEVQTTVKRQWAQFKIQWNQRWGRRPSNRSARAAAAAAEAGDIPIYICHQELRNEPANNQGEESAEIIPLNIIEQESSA
T3 sequence (O60896 24-148): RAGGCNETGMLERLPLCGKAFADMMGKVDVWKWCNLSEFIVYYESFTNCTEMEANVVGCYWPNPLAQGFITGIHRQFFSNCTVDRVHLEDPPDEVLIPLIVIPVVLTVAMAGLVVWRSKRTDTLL

SMILES | EC50 [1, 4] | EC50 [1, 5] | EC50 [2, 6] | EC50 [2, 7] | EC50 [3, 8] | EC50 [3, 9] | EC50 ([1]; hGLP-1R Potency, no HSA, EC50, method B, absence of HSA) | EC50 ([2]; hGIPR Potency, no HSA, EC50, method B, absence of HSA) | EC50 ([3]; hAMYR3 Potency, no HSA, EC50, method B, absence of HSA)
CC[C@H](C)[C@H](NC(=O)[C@H](CCC(=O)O)NC(=O)[C@H](CCC(=O)O)NC(=O)[C@H](CC(C)C)NC(=O)[C@H](CC(C)C)NC(=O)[C@@H](NC(=O)[C@H](CO)NC(=O)[C@H](Cc1ccc(O)cc1)NC(=O)[C@H](CC(=O)O)NC(=O)[C@H](CO)NC(=O)[C@@H](NC(=O)[C@H](Cc1ccccc1)NC(=O)[C@@H](NC(=O)CNC(=O)[C@H](CCC(=O)O)NC(=O)C(C)(C)NC(=O)[C@@H](N)Cc1ccc(O)cc1)[C@@H](C)O)[C@@H](C)O)[C@@H](C)CC)C(=O)N[C@@H](C)C(=O)N[C@@H](C)C(=O)N[C@@H](CCCNC(=N)N)C(=O)N[C@@H](CCC(=O)O)C(=O)N[C@@H](Cc1ccccc1)C(=O)N[C@H](C(=O)N[C@@H](CCC(=O)O)C(=O)N[C@@H](Cc1c[nH]c2ccccc12)C(=O)N[C@@H](CC(C)C)C(=O)N[C@@H](CC(C)C)C(=O)N[C@@H](C)C(=O)NCC(=O)NCC(=O)N1CCC[C@H]1C(=O)N[C@@H](CO)C(=O)N[C@@H](CO)C(=O)NCC(=O)N[C@@H](C)C(=O)NCC(=O)N[C@@H](C)C(=O)N[C@@H](CO)C(=O)N[C@@H](Cc1c[nH]cn1)C(=O)N[C@@H](CC(C)C)C(=O)N[C@@H](CO)C(=O)N[C@H](C(=O)N[C@@H](C)C(=O)N[C@@H](CCC(N)=O)C(=O)N[C@H](C(=O)N[C@@H](CCC(N)=O)C(=O)N[C@@H](CCCNC(=N)N)C(=O)N[C@@H](CC(C)C)C(=O)N[C@@H](CO)C(=O)N[C@@H](C)C(=O)N[C@@H](CCC(=O)O)C(=O)N[C@@H](CC(C)C)C(=O)N[C@@H](Cc1c[nH]cn1)C(=O)N[C@@H](CCCCNC(=O)COCCOCCNC(=O)COCCOCCNC(=O)CC[C@H](NC(=O)CCCCCCCCCCCCCCCCCCC(=O)O)C(=O)O)C(=O)N[C@@H](CC(C)C)C(=O)N[C@@H](C)C(=O)N[C@H](C(=O)N[C@@H](CCC(=O)O)C(=O)N1CCC[C@H]1C(=O)N[C@@H](CCCNC(=N)N)C(=O)N[C@H](C(=O)N[C@@H](CCC(=O)O)C(=O)N[C@H](C(=O)NCC(=O)N[C@@H](CO)C(=O)NCC(=O)N[C@@H](CO)C(=O)N1CCC[C@H]1C(N)=O)[C@@H](C)O)[C@@H](C)O)[C@@H](C)O)[C@@H](C)O)[C@@H](C)O)[C@@H](C)CC [Compound 179] | 0.17 nM | 0.0233 nM | 25.5 pM | 4.36 pM | 1.35 nM | 0.01 nM | – | – | –
CC[C@H](C)[C@H](NC(=O)[C@H](CCC(=O)O)NC(=O)[C@H](CCC(=O)O)NC(=O)[C@H](CC(C)C)NC(=O)[C@H](CC(C)C)NC(=O)[C@@H](NC(=O)[C@H](CO)NC(=O)[C@H](Cc1ccc(O)cc1)NC(=O)[C@H](CC(=O)O)NC(=O)[C@H](CO)NC(=O)[C@@H](NC(=O)[C@H](Cc1ccccc1)NC(=O)[C@@H](NC(=O)CNC(=O)[C@H](CCC(=O)O)NC(=O)C(C)(C)NC(=O)[C@@H](N)Cc1ccc(O)cc1)[C@@H](C)O)[C@@H](C)O)[C@@H](C)CC)C(=O)N[C@@H](C)C(=O)N[C@@H](C)C(=O)N[C@@H](CCCNC(=N)N)C(=O)N[C@@H](CCC(=O)O)C(=O)N[C@@H](Cc1ccccc1)C(=O)N[C@H](C(=O)N[C@@H](CCC(=O)O)C(=O)N[C@@H](Cc1c[nH]c2ccccc12)C(=O)N[C@@H](CC(C)C)C(=O)N[C@@H](CC(C)C)C(=O)N[C@@H](C)C(=O)NCC(=O)NCC(=O)N1CCC[C@H]1C(=O)N[C@@H](CO)C(=O)N[C@@H](CO)C(=O)N[C@@H](CCC(=O)O)C(=O)N[C@@H](C)C(=O)NCC(=O)N[C@@H](C)C(=O)N[C@@H](CO)C(=O)N[C@@H](CCC(N)=O)C(=O)N[C@@H](CC(C)C)C(=O)N[C@@H](CO)C(=O)N[C@H](C(=O)N[C@@H](C)C(=O)N[C@@H](CCC(N)=O)C(=O)N[C@H](C(=O)N[C@@H](CCC(N)=O)C(=O)N[C@@H](CCCNC(=N)N)C(=O)N[C@@H](CC(C)C)C(=O)N[C@@H](CO)C(=O)N[C@@H](C)C(=O)N[C@@H](CCC(=O)O)C(=O)N[C@@H](CC(C)C)C(=O)N[C@@H](Cc1c[nH]cn1)C(=O)N[C@@H](CCCCNC(=O)COCCOCCNC(=O)COCCOCCNC(=O)CC[C@H](NC(=O)CCCCCCCCCCCCCCCCCCC(=O)O)C(=O)O)C(=O)N[C@@H](CC(C)C)C(=O)N[C@@H](C)C(=O)N[C@H](C(=O)N[C@@H](CC(C)C)C(=O)N1CCC[C@H]1C(=O)N[C@@H](CCCNC(=N)N)C(=O)N[C@H](C(=O)N[C@@H](CCC(=O)O)C(=O)N[C@H](C(=O)NCC(=O)N[C@@H](CO)C(=O)NCC(=O)N[C@@H](CO)C(=O)N1CCC[C@H]1C(N)=O)[C@@H](C)O)[C@@H](C)O)[C@@H](C)O)[C@@H](C)O)[C@@H](C)O)[C@@H](C)CC [Compound 181] | – | 0.0288 nM | – | 3.25 pM | – | 0.00846 nM | – | – | –
CC[C@H](C)[C@H](NC(=O)[C@H](CCC(=O)O)NC(=O)[C@H](CCC(=O)O)NC(=O)[C@H](CC(C)C)NC(=O)[C@H](CC(C)C)NC(=O)[C@@H](NC(=O)[C@H](CO)NC(=O)[C@H](Cc1ccc(O)cc1)NC(=O)[C@H](CC(=O)O)NC(=O)[C@H](CO)NC(=O)[C@@H](NC(=O)[C@H](Cc1ccccc1)NC(=O)[C@@H](NC(=O)CNC(=O)[C@H](CCC(=O)O)NC(=O)C(C)(C)NC(=O)[C@@H](N)Cc1ccc(O)cc1)[C@@H](C)O)[C@@H](C)O)[C@@H](C)CC)C(=O)N[C@@H](C)C(=O)N[C@@H](C)C(=O)N[C@@H](CCCNC(=N)N)C(=O)N[C@@H](CCC(=O)O)C(=O)N[C@@H](Cc1ccccc1)C(=O)N[C@H](C(=O)N[C@@H](CCC(=O)O)C(=O)N[C@@H](Cc1c[nH]c2ccccc12)C(=O)N[C@@H](CC(C)C)C(=O)N[C@@H](CC(C)C)C(=O)N[C@@H](C)C(=O)NCC(=O)NCC(=O)N1CCC[C@H]1C(=O)N[C@@H](CO)C(=O)N[C@@H](CO)C(=O)NCC(=O)N[C@@H](C)C(=O)NCC(=O)N[C@@H](CCC(=O)O)C(=O)N[C@@H](C)C(=O)N1CCC[C@H]1C(=O)NCC(=O)N[C@@H](CCC(=O)O)C(=O)N[C@@H](C)C(=O)N1CCC[C@H]1C(=O)NCC(=O)N[C@@H](C)C(=O)N[C@@H](CO)C(=O)N[C@@H](Cc1c[nH]cn1)C(=O)N[C@@H](CC(C)C)C(=O)N[C@@H](CO)C(=O)N[C@H](C(=O)N[C@@H](C)C(=O)N[C@@H](CCC(N)=O)C(=O)N[C@H](C(=O)N[C@@H](CCC(N)=O)C(=O)N[C@@H](CCCNC(=N)N)C(=O)N[C@@H](CC(C)C)C(=O)N[C@@H](CO)C(=O)N[C@@H](C)C(=O)N[C@@H](CCC(=O)O)C(=O)N[C@@H](CC(C)C)C(=O)N[C@@H](Cc1c[nH]cn1)C(=O)N[C@@H](CCCCNC(=O)COCCOCCNC(=O)COCCOCCNC(=O)CC[C@H](NC(=O)CCCCCCCCCCCCCCCCCCC(=O)O)C(=O)O)C(=O)N[C@@H](CC(C)C)C(=O)N[C@@H](C)C(=O)N[C@H](C(=O)N[C@@H](CC(C)C)C(=O)N1CCC[C@H]1C(=O)N[C@@H](CCCNC(=N)N)C(=O)N[C@H](C(=O)N[C@@H](CCC(=O)O)C(=O)N[C@H](C(=O)NCC(=O)N[C@@H](CO)C(=O)NCC(=O)N[C@@H](CO)C(=O)N1CCC[C@H]1C(N)=O)[C@@H](C)O)[C@@H](C)O)[C@@H](C)O)[C@@H](C)O)[C@@H](C)O)[C@@H](C)CC [Compound 189] | 0.0819 nM | – | 9.18 pM | – | 1.21 nM | – | 0.0269 nM | 3.18 pM | 0.0127 nM
